From patent US20170094972A1, “Compounds and Compositions Having Knock-Down Activity Against Insect Pests” (priority 2015, published 2017)

What follows are molecules tested on Aedes aegypti (assay: 12 well plate knockdown test). Conditions: 1 h, Rate 0.2 PPM, read-out: Aedes aegypti 1 hour % KD.
Format: in vivo
Procedure: (§1) The individual wells of a twelve (12) well tissue culture plates were treated with 100 μl of an ethanol solution containing a test compound at a defined concentration. Once the deposits were dry, five non-blood fed adult female Aedes aegypti or Anopheles stephensi (between two to five day old) were added to each well, and sustained with a 10% sucrose solution in a cotton wool plug. Assessment of the knockdown after 1 hour was carried out. Where multiple replicates of a treatment have been undertaken, the mean of those replicates is reported.

Row | SMILES | pest or weed control at 0.2 ppm
1 | CO/N=C(\C)CNC(=O)c1cnccc1C(F)(F)F [I.18] | 40%
2 | N/C(=N/C(=O)c1cnccc1C(F)(F)F)C1CC1 [I.19] | 0%
3 | FC(F)(F)c1ccncc1C1=NCCN1 [I.20] | 0%
4 | CSCC/C(N)=N\C(=O)c1cnccc1C(F)(F)F [I.21] | 0%

Same assay, conditions: 1 h, Rate 2 PPM, read-out: Aedes aegypti 1 hour % KD

Row | SMILES | pest or weed control at 2 ppm
5 | CO/N=C(\C)CNC(=O)c1cnccc1C(F)(F)F [I.18] | 100%
6 | N/C(=N/C(=O)c1cnccc1C(F)(F)F)C1CC1 [I.19] | 100%
7 | FC(F)(F)c1ccncc1C1=NCCN1 [I.20] | 40%
8 | CSCC/C(N)=N\C(=O)c1cnccc1C(F)(F)F [I.21] | 0%

Same assay, conditions: 1 h, Rate 20 PPM, read-out: Aedes aegypti 1 hour % KD

Row | SMILES | pest or weed control at 20 ppm
9 | CO/N=C(\C)CNC(=O)c1cnccc1C(F)(F)F [I.18] | 100%
10 | N/C(=N/C(=O)c1cnccc1C(F)(F)F)C1CC1 [I.19] | 100%
11 | FC(F)(F)c1ccncc1C1=NCCN1 [I.20] | 100%
12 | CSCC/C(N)=N\C(=O)c1cnccc1C(F)(F)F [I.21] | 0%

Same assay, conditions: 1 h, Rate 200 PPM, read-out: Aedes aegypti 1 hour % KD

Row | SMILES | pest or weed control at 200 ppm
13 | CO/N=C(\C)CNC(=O)c1cnccc1C(F)(F)F [I.18] | 100%
14 | N/C(=N/C(=O)c1cnccc1C(F)(F)F)C1CC1 [I.19] | 100%
15 | FC(F)(F)c1ccncc1C1=NCCN1 [I.20] | 100%
16 | CSCC/C(N)=N\C(=O)c1cnccc1C(F)(F)F [I.21] | 100%

What follows are molecules tested on Anopheles stephensi (assay: 12 well plate knockdown test). Conditions: 1 h, Rate 0.2 PPM, read-out: Anopheles stephensi 1 hour % KD.
Format: in vivo
Procedure: as §1

Row | SMILES | pest or weed control at 0.2 ppm
17 | CO/N=C(\C)CNC(=O)c1cnccc1C(F)(F)F [I.18] | 0%
18 | N/C(=N/C(=O)c1cnccc1C(F)(F)F)C1CC1 [I.19] | 40%
19 | FC(F)(F)c1ccncc1C1=NCCN1 [I.20] | 20%
20 | CSCC/C(N)=N\C(=O)c1cnccc1C(F)(F)F [I.21] | 20%

Same assay, conditions: 1 h, Rate 2 PPM, read-out: Anopheles stephensi 1 hour % KD

Row | SMILES | pest or weed control at 2 ppm
21 | CO/N=C(\C)CNC(=O)c1cnccc1C(F)(F)F [I.18] | 0%
22 | N/C(=N/C(=O)c1cnccc1C(F)(F)F)C1CC1 [I.19] | 60%
23 | FC(F)(F)c1ccncc1C1=NCCN1 [I.20] | 60%
24 | CSCC/C(N)=N\C(=O)c1cnccc1C(F)(F)F [I.21] | 60%

Same assay, conditions: 1 h, Rate 20 PPM, read-out: Anopheles stephensi 1 hour % KD

Row | SMILES | pest or weed control at 20 ppm
25 | CO/N=C(\C)CNC(=O)c1cnccc1C(F)(F)F [I.18] | 0%
26 | N/C(=N/C(=O)c1cnccc1C(F)(F)F)C1CC1 [I.19] | 100%
27 | FC(F)(F)c1ccncc1C1=NCCN1 [I.20] | 100%
28 | CSCC/C(N)=N\C(=O)c1cnccc1C(F)(F)F [I.21] | 100%

Same assay, conditions: 1 h, Rate 200 PPM, read-out: Anopheles stephensi 1 hour % KD

Row | SMILES | pest or weed control at 200 ppm
29 | CO/N=C(\C)CNC(=O)c1cnccc1C(F)(F)F [I.18] | 40%
30 | N/C(=N/C(=O)c1cnccc1C(F)(F)F)C1CC1 [I.19] | 100%
31 | FC(F)(F)c1ccncc1C1=NCCN1 [I.20] | 100%
32 | CSCC/C(N)=N\C(=O)c1cnccc1C(F)(F)F [I.21] | 100%
